Read-outs that look alike come from different tables or passages of the source.
Tests used:
A549 lung cancer cells = experiment: Cell growth inhibition, Sulforhodamine B assay (SRB); format: cell-based; conditions: Homo sapiens, A549, 120 h, 5 days culture, read-out: Cell Line GI50 Range, A-549
In short: (§1)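 Cells seeded 24 h before compound addition, then exposed to 10 nM–50 μM final compound in DMEM + 10% FBS for 5 days. Growth measured by TCA fixation, SRB staining and absorbance at 570 nm; % inhibition relative to DMSO-only cells, with GI50 fitted for cytotoxic compounds.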

[1] = system: HCC1954 basal breast cancer cell line; experiment: as above; format: cell-based; conditions: Homo sapiens
In short: as §1

[2] = system: MCF-7 luminal breast cancer cell line; experiment: as above; format: cell-based; conditions: Homo sapiens, MCF7, 120 h; 5 days culture, SRB; read-out: Cell Line GI50 Range, MCF-7
In short: as §1

[3] = system: MDA-MB-468 basal breast cancer cell line; experiment: as above; format: cell-based; conditions: Homo sapiens, MDA-MB-468, 120 h; 5 days culture, SRB; read-out: Cell Line GI50 Range, MDA-MB-468
In short: as §1

SW620 colon cancer cells = experiment: as above; format: cell-based; conditions: Homo sapiens, SW-620, 120 h, 5 days culture, read-out: Cell Line GI50 Range, SW-620
In short: as §1

[4] = system: human mammary epithelial primary cells (HMEC); experiment: as above; format: cell-based; conditions: 120 h, 5 days culture, read-out: Cell Line GI50 Range, HMEC
In short: as §1

Abl [5] = molecular target: T1, Abl (Homo sapiens, UniProt P00519); experiment: Millipore kinase assay, radiolabelled phosphopeptide filter binding, IC50 estimate; format: biochemical; parameters: purchased Millipore (assay service); conditions: estimated from inhibition at three compound concentrations; ATP at the Km
Experimental: (§2) Kinase assays at Millipore were performed using a radiolabelled phosphopeptide filter binding detection system, in duplicate, at each compound concentration. The ATP substrate concentration in the reactions was at the Km for each enzyme.
(§3) To allow for a more direct comparison of compound inhibition, an IC50 value was estimated from the inhibition determined at three compound concentrations. Several assumptions were made to allow this calculation using a 4 parameter non linear curve fit model, including full inhibition set at 100%, no inhibition set to 0%, and a curve fit parameter set at 1. The inflection point was reported as the estimated IC50.

Lyn = Lyn (Homo sapiens, UniProt P07948); experiment: as above; format: biochemical; parameters: purchased Millipore (assay service); conditions: estimated from inhibition at three compound concentrations; ATP at the Km
Experimental: as §2, §3

Ret = Ret (Homo sapiens, UniProt P07949); experiment: as above; format: biochemical; parameters: purchased Millipore (assay service); conditions: estimated from inhibition at three compound concentrations; ATP at the Km
Experimental: as §2, §3

TRKA = TRKA (Homo sapiens, UniProt P04629); experiment: as above; format: biochemical; parameters: purchased Millipore (assay service); conditions: estimated from inhibition at three compound concentrations; ATP at the Km
Experimental: as §2, §3

Abl [6] = molecular target: T1, Abl; experiment: Kinase Selectivity Assay (CEREP, HTRF); format: biochemical; parameters: CEREP, France (ran the assays); conditions: read-out: % Inhibition at 10 μM Concentration, Abl
Experimental: kinase, ROCK2, RSK2, Src kinase, Syk, and TRKA. The % Inhibition was determined

KDR = molecular target: T2, KDR (Homo sapiens, UniProt P35968); experiment: Millipore kinase assay, radiolabelled phosphopeptide filter binding, IC50 estimate; format: biochemical; conditions: estimated from inhibition at three compound concentrations; ATP at the Km
T2 construct: purchased Millipore (assay service)
Experimental: as §2, §3

[7] = system: 184A1 immortalized breast cell line; experiment: Cell growth inhibition, SRB assay, extended panel; format: cell-based; conditions: read-out: GI50 Range, 184A1
Experimental: (§4) Breast cancer cells (MCF-7, MDA-MB-468, HCC1954), colon cancer cells (SW620) and lung cancer cells (A549), together with human mammary epithelial primary cells (HMEC), were seeded (1000 to 4000 per 80 μl per well depending on the cell growth rate) into 96 well plates, 24 hours before compound overlay. Compounds were prepared as 10 mM stock solutions in 100% DMSO which were diluted with DMEM (Dulbecco's Modified Eagle's Medium) cell growth Medium (Invitrogen, Burlington, ON, Canada) containing 10% FBS (Fetal Bovine Serum) to concentrations ranging from 50 nM to 250 μM. Aliquots (20 μl) from each concentration were overlaid to 80 μl of the pre-seeded cells in the 96 well plates to make final concentrations of 10 nM to 50 μM. The cells were cultured for 5 days before the Sulforhodamine B assay (SRB) was performed to determine the compound's cell growth inhibition activity.
(§5) Sulforhodamine B (purchased from Sigma, Oakville, ON, Canada) is a water-soluble dye that binds to the basic amino acids of the cellular proteins. Thus, colorimetric measurement of the bound dye provides an estimate of the total protein mass that is related to the cell number. the cells are fixed in situ by gently aspirating off the culture media and adding 50 μl ice cold 10% Tri-chloroacetic Acid (TCA) per well and incubate at 4° C. for 30-60 min, The plates are washed with water five times and allowed to air dry for 5 min. Addition of 50 μl 0.4% (w/v) SRB solution in 1% (v/v) acetic acid to each well and incubatation for 30 min at RT completes the staining reaction. Following staining, plates are washed four times with 1% acetic acid to remove unbound dye and then allowed to air dry for 5 min. The stain is solubilized with 100 μl of 10 mM Tris pH10.5 per well. Absorbance is read at 570 nm.
(§6) The percentage (%) of relative growth inhibition was calculated by comparing to DMSO treated only cells (100%). GI50's were determined for compounds with cytotoxic activity. The GI50 was calculated using GraphPad PRISM software (GraphPad Software, Inc., San Diego, Calif., USA).
(§7) In addition to the cell lines tested as described above, selected compounds have been assayed against an extended panel. […] The sulforhodamine B assay (SRB) described above was use to assay test compounds against the extended panel (Table 9).

[8] = system: HCT-15 colon cancer cell line; experiment: Cell growth inhibition, SRB assay, extended panel; format: cell-based; conditions: Homo sapiens, read-out: GI50 Range, HCT-15
Experimental: as §4, §5, §6, §7

[9] = system: HS578T breast cancer cell line; experiment: Cell growth inhibition, SRB assay, extended panel; format: cell-based; conditions: Homo sapiens, Hs-578T, read-out: GI50 Range, HS578T
Experimental: as §4, §5, §6, §7

[10] = system: Hs683 brain cancer cell line; experiment: Cell growth inhibition, SRB assay, extended panel; format: cell-based; conditions: Homo sapiens, Hs 683, read-out: GI50 Range, Hs683
Experimental: as §4, §5, §6, §7

[11] = system: MDA-MB-231 breast cancer cell line; experiment: Cell growth inhibition, SRB assay, extended panel; format: cell-based; conditions: Homo sapiens, read-out: GI50 Range, MDA-MB-231
Experimental: as §4, §5, §6, §7

[12] = system: PC-3 prostate cancer cell line; experiment: Cell growth inhibition, SRB assay, extended panel; format: cell-based; conditions: read-out: GI50 Range, PC-3
Experimental: as §4, §5, §6, §7

[13] = system: SW 626 ovarian cancer cell line; experiment: Cell growth inhibition, SRB assay, extended panel; format: cell-based; conditions: Homo sapiens, SW626, read-out: GI50 Range, SW 626
Experimental: as §4, §5, §6, §7

[14] = HCC1954, 120 h, 5 days culture, read-out: Cell Line GI50 Range, HCC-1954
[15] = HCC1954, extended panel (Table 9), read-out: GI50 Range, HCC1954

T1 sequence (P00519 whole entry): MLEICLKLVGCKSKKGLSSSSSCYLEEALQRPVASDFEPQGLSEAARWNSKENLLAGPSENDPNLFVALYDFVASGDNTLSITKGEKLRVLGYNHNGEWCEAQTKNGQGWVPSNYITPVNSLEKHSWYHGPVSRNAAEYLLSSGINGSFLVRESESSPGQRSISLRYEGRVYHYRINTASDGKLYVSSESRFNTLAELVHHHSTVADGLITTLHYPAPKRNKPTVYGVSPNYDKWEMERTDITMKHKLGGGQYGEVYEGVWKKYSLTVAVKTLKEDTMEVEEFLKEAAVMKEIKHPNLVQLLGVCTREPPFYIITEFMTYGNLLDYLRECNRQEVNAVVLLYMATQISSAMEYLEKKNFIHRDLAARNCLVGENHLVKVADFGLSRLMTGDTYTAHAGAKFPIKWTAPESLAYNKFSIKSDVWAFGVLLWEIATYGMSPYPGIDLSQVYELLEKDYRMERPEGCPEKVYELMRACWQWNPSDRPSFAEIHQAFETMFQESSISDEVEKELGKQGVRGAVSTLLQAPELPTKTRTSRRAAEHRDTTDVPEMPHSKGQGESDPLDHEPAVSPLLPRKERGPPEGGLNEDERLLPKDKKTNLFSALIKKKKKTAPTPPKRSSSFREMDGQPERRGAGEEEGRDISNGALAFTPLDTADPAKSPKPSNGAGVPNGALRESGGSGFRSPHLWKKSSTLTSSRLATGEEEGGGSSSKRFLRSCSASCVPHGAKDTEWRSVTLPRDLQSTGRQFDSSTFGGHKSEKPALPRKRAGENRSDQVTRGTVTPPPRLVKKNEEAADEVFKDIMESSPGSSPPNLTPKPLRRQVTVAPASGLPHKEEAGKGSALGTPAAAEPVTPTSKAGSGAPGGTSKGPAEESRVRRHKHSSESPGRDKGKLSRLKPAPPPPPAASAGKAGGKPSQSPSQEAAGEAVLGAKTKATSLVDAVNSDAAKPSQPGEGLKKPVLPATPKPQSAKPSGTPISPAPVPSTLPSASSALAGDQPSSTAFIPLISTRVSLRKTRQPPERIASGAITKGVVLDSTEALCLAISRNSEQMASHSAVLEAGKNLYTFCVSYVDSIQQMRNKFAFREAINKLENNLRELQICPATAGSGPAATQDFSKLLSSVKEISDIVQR
Sequence of TRKA (P04629 33-796): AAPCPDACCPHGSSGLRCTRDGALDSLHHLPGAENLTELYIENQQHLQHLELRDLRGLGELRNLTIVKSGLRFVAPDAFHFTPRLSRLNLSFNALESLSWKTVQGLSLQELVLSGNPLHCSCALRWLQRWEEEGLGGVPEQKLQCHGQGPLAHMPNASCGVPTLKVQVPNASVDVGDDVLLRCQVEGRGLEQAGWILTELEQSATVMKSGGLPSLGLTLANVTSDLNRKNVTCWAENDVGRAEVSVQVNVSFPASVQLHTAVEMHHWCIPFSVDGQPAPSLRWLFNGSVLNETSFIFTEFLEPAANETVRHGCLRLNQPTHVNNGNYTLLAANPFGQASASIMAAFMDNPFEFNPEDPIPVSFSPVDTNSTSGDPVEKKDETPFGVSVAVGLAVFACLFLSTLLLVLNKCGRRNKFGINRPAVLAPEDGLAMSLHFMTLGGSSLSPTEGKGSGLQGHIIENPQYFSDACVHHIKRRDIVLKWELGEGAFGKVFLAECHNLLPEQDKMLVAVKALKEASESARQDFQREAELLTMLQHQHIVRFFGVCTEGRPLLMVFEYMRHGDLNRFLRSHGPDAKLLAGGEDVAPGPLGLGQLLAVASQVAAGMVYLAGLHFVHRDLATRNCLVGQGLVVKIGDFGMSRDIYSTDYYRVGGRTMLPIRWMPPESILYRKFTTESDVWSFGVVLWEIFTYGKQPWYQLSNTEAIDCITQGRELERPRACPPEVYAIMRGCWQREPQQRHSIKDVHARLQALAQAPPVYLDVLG
Sequence of Ret (P07949 29-1114): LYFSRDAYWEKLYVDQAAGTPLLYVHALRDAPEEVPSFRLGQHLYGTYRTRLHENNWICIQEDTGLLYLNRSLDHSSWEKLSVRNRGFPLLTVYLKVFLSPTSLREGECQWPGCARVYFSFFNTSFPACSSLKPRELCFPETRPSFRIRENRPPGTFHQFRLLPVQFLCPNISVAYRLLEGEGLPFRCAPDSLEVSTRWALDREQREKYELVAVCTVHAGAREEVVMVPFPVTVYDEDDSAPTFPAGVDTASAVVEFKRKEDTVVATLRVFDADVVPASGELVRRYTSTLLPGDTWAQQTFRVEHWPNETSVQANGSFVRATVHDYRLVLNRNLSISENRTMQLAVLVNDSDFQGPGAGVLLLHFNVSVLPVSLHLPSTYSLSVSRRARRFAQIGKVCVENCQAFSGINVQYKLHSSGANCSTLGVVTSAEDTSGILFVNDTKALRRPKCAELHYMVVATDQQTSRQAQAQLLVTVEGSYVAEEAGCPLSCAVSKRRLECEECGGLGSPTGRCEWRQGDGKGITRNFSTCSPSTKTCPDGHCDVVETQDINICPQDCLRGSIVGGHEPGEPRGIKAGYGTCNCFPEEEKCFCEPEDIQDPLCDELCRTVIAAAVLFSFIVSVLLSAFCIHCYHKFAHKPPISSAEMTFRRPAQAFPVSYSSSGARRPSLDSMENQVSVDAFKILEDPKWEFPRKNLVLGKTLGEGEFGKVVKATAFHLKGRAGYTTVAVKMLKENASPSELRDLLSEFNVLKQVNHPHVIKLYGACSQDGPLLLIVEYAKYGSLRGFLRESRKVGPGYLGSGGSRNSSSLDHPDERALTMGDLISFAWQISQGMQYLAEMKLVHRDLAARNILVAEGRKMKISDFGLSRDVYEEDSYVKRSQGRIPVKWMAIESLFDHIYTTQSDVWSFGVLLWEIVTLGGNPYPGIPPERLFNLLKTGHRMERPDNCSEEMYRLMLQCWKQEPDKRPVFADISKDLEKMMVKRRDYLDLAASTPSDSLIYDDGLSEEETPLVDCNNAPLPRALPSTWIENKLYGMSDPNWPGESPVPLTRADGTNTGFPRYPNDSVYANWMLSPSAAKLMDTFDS
Sequence of Lyn (P07948 whole entry): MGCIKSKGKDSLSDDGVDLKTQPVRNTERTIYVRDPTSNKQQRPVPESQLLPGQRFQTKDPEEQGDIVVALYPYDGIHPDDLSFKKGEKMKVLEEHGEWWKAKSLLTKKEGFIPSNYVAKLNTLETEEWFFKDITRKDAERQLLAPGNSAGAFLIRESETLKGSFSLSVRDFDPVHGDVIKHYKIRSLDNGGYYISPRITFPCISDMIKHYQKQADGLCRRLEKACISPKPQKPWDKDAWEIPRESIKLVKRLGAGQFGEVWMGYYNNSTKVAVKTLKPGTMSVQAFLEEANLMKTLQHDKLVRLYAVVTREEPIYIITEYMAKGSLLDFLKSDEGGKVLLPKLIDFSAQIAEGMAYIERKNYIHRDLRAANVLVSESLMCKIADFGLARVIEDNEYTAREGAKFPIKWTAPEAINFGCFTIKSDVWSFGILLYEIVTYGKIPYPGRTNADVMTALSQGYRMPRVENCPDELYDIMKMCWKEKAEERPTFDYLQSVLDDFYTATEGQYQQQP
T2 sequence (P35968 20-1356): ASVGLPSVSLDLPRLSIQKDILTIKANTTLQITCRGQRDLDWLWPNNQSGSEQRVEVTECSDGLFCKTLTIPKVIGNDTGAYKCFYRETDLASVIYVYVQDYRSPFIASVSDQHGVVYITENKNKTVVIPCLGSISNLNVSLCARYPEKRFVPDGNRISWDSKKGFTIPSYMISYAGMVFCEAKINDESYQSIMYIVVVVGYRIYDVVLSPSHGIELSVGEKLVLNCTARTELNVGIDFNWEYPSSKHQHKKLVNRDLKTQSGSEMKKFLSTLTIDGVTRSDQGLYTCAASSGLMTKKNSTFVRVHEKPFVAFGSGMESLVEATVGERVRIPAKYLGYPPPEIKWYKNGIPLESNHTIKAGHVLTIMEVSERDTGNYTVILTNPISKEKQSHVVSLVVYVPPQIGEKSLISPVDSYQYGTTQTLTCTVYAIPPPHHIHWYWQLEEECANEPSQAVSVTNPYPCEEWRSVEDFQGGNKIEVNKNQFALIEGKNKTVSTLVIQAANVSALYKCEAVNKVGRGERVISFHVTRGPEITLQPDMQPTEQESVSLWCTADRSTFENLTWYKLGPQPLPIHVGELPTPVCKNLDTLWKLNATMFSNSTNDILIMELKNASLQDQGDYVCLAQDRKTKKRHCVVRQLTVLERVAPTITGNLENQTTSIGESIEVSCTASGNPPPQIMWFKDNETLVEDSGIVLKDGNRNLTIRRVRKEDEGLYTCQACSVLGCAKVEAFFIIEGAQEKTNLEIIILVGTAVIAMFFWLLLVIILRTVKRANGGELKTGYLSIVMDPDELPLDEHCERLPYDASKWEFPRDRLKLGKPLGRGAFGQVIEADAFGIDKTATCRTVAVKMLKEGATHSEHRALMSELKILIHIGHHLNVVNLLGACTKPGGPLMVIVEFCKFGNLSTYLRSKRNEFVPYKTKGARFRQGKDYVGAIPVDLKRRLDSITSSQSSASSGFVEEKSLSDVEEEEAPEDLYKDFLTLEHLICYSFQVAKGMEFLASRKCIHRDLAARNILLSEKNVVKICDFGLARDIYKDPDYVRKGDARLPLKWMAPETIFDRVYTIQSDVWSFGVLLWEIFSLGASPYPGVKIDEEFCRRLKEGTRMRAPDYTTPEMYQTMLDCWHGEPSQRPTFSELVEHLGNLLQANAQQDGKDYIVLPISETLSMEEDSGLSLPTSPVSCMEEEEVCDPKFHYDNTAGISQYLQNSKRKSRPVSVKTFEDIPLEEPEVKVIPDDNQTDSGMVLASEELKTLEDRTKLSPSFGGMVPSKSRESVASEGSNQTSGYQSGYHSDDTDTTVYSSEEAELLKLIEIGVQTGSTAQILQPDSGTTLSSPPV

| Structure (SMILES) | GI50 (A549 lung cancer cells) | GI50 [1, 14] | GI50 [2] | GI50 [3] | GI50 (SW620 colon cancer cells) | GI50 [4] | IC50 (Abl [5]) | IC50 (Lyn) | IC50 (Ret) | IC50 (TRKA) | inhibition at 10 µM (Abl [6]) | IC50 (KDR) | GI50 [1, 15] | GI50 [7] | GI50 [8] | GI50 [9] | GI50 [10] | GI50 [11] | GI50 [12] | GI50 [13] |
| --- | --- | --- | --- | --- | --- | --- | --- | --- | --- | --- | --- | --- | --- | --- | --- | --- | --- | --- | --- | --- |
| CN(C)Cc1ccc(/C=C/c2n[nH]c3cc(C=C4C(=O)Nc5ccccc54)ccc23)cc1 (mixture of isomers) [Example A106, (E and Z)-3-[(3-{(E)-2-[4-((dimethylamino)methyl)-phenyl]-ethenyl}-1H-indazol-6-yl)methylidene]-1,3-dihydro-2H-indol-2-one 2,2,2-trifluoroacetate] | < 5 µM | < 5 µM | < 5 µM | < 5 µM | < 5 µM | 5 to 20 µM | < 5 µM | < 5 µM | < 5 µM | < 5 µM |  |  |  |  |  |  |  |  |  |  |
| O=C1Nc2ccccc2/C1=C\c1ccc2c(/C=C/c3ccccc3Cl)n[nH]c2c1 [Example A60, (E)-3-((3-((E)-2-chlorostyryl)-1H-indazol-6-yl)methylene)indolin-2-one] |  |  |  |  |  |  |  |  |  |  | 40% |  |  |  |  |  |  |  |  |  |
| O=C1Nc2ccccc2C1=Cc1ccc2c(/C=C/c3ccccn3)n[nH]c2c1 (mixture of isomers) [Example A41, (E and Z)-3-((3-((E)-2-(pyridin-2-yl)vinyl)-1H-indazol-6-yl)methylene)indolin-2-one] | 5 to 20 µM | 20 to 50 µM | < 5 µM | < 5 µM | 5 to 20 µM | > 50 µM | < 5 µM | < 5 µM | < 5 µM | < 5 µM | 100% | < 5 µM | < 5 µM | 20 to 50 µM | < 5 µM | 5 to 20 µM | < 5 µM | 5 to 20 µM | 20 to 50 µM | > 50 µM |
| COc1ccc2c(c1)C(=Cc1ccc3c(-c4ccc(N5CCN(C)CC5)nc4)n[nH]c3c1)C(=O)N2 (mixture of isomers) [Example A97, (E and Z)-5-methoxy-3-((3-(6-(4-methylpiperazin-1-yl)pyridin-3-yl)-1H-indazol-6-yl)methylene)indolin-2-one] | < 5 µM | < 5 µM | < 5 µM | < 5 µM | < 5 µM | 20 to 50 µM | < 5 µM | 5 to 50 µM | < 5 µM | < 5 µM | 99% | < 5 µM | < 5 µM | < 5 µM |  | < 5 µM |  | < 5 µM |  |  |
| O=C1Nc2ccccc2/C1=C\c1ccc2[nH]nnc2c1 [Example A1, (E)-3-((1H-benzo[d][1,2,3]triazol-5-yl)methylene)indolin-2-one] |  |  |  |  |  |  |  |  |  |  | 34% |  |  |  |  |  |  |  |  |  |
| O=C1Nc2ccccc2/C1=C\c1ccc2cn[nH]c2c1 [Example A5, (E)-3-((1H-indazol-6-yl)methylene)indolin-2-one] |  |  |  |  |  |  |  |  |  |  | 24% |  |  |  |  |  |  |  |  |  |
| O=C1Nc2ncc(Br)cc2C1=Cc1ccc2c(/C=C/c3ccncc3)n[nH]c2c1 (mixture of isomers) [Example A109, (E and Z)-5-bromo-3-((3-((E)-2-(pyridin-4-yl)vinyl)-1H-indazol-6-yl)methyl-ene)-1H-pyrrolo[2,3-b]pyridin-2(3H)-one] | < 5 µM | > 50 µM | < 5 µM | < 5 µM | < 5 µM | > 50 µM |  |  |  |  |  |  | > 50 µM | < 5 µM | < 5 µM | < 5 µM | < 5 µM | < 5 µM | < 5 µM | 5 to 20 µM |
| CN1CCN(c2ccc(/C=C/c3n[nH]c4cc(C=C5C(=O)Nc6ccccc65)ccc34)cn2)CC1 (mixture of isomers) [Example A108, (E and Z)-3-((3-((E)-2-(6-(4-methylpiperazin-1-yl)pyridin-3-yl)vinyl)-1H-indazol-6-yl)methylene)indolin-2-one] | < 5 µM | < 5 µM | < 5 µM | < 5 µM | < 5 µM | < 5 µM |  |  |  |  |  |  | < 5 µM | < 5 µM | < 5 µM | < 5 µM | < 5 µM | < 5 µM | < 5 µM | < 5 µM |

Source: patent US8765748B2, “Indazolyl, benzimidazolyl, benzotriazolyl substituted indolinone derivatives as kinase inhibitors useful in the treatment of cancer” (University Health Network, priority 2007, dated 2014)
